Laboratory results: article PMC5736936, “Xylopine Induces Oxidative Stress and Causes G2/M Phase Arrest, Triggering Caspase-Mediated Apoptosis by p53-Independent Pathway in HCT116 Cells” (Oxidative Medicine and Cellular Longevity, 2017)

Assays:
[1] = test system: caspase-3 in HCT116 cells; assay: Caspase-3 activation assay (colorimetric, Ac-DEVD-pNA); assay type: cell-based, human; conditions: HCT116, 48 h, p < 0.05
Method: A Caspase-3 Colorimetric Assay Kit (Sigma-Aldrich Co.) was used to investigate caspase-3 activation in xylopine-treated HCT116 cells based on the cleavage of Ac-DEVD-pNA and the analysis was performed according to the manufacturer's instructions.

HCT116 cells [2] = assay: Annexin V-FITC/PI staining assay (flow cytometry), with protection assays; assay type: cell-based, human
Method: For apoptosis detection, we used the FITC Annexin V Apoptosis Detection Kit I (BD Biosciences), and the analysis was performed according to the manufacturer's instructions. The cell fluorescence was determined by flow cytometry as described above. The protection assays using a caspase-3 inhibitor (Z-DEVD-FMK, BD Biosciences), a p53 inhibitor (cyclic pifithrin-α, Cayman Chemical, Ann Arbor, MI, USA), and an antioxidant N-acetyl-L-cysteine (NAC, Sigma-Aldrich Co.) were performed. In brief, the cells were pretreated for 2 h with 50 μM Z-DEVD-FMK and 10 μM cyclic pifithrin-α and for 1 h with 5 mM NAC, followed by incubation with 14 μM xylopine for 48 h. The cells were then trypsinized and the FITC Annexin V Apoptosis Detection assay was conducted as described above.

[3] = test system: HL-60 (human promyelocytic leukemia); assay: Cytotoxic activity, alamarBlue assay, 72 h; assay type: cell-based;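 as to Selectivity index: SI is noncancer IC50 (MRC-5 or PBMC) divided by cancer cell IC50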
Excerpt: (§1) MCF7 (human breast carcinoma), HCT116 (human colon carcinoma), HepG2 (human hepatocellular carcinoma), SCC-9 (human oral squamous cell carcinoma), HSC-3 (human oral squamous cell carcinoma), HL-60 (human promyelocytic leukemia), K-562 (human chronic myelogenous leukemia), B16-F10 (murine melanoma), MRC-5 (human lung fibroblast), WT SV40 MEF (wild-type immortalized mouse embryonic fibroblast), and BAD KO SV40 MEF (BAD gene knockout immortalized mouse embryonic fibroblast) cell lines were obtained from the American Type Culture Collection (ATCC, Manassas, VA, USA). Cells were cultured in complete medium with appropriate supplements as recommended by ATCC. All cell lines were tested for mycoplasma using the Mycoplasma Stain Kit (Sigma-Aldrich) to validate the use of cells free from contamination. Primary cell culture of peripheral blood mononuclear cells (PBMC) was obtained by standard Ficoll density protocol. The Research Ethics Committee of the Oswaldo Cruz Foundation (Salvador, BA, Brazil) approved the experimental protocol (number 031019/2013). Cell viability was examined using trypan blue exclusion assay for all experiments.
(§2) Cell viability was quantified using the alamarBlue assay according to Ahmed et al.. Cells were inserted in 96-well plates for all experiments (7 × 10^4 cells/mL for adherent cells or 3 × 10^5 cells/mL for suspended cells in 100 μL of medium). After 24 h, xylopine was dissolved in dimethyl sulfoxide (DMSO) and added to each well and incubated for 72 h. […] Four (for cell lines) or 24 h (for PBMCs) before the end of incubation, 20 μL of a stock solution (0.312 mg/mL) of the alamarBlue (resazurin, Sigma-Aldrich Co., Saint Louis, MO, USA) was added to each well. Absorbance at 570 nm and 600 nm was measured using the SpectraMax 190 Microplate Reader (Molecular Devices, Sunnyvale, CA, USA), and the drug effect was quantified as the percentage of control absorbance.

[4] = test system: MCF7 (human breast carcinoma); assay: Cytotoxic activity, alamarBlue assay, 72 h; assay type: cell-based;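 as to Selectivity index: SI is noncancer IC50 (MRC-5 or PBMC) divided by cancer cell IC50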
Excerpt: as §1, §2

[5] = test system: HCT116 (human colon carcinoma); assay: Cytotoxic activity, alamarBlue assay, 72 h; assay type: cell-based;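 as to Selectivity index: SI is noncancer IC50 (MRC-5 or PBMC) divided by cancer cell IC50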
Excerpt: as §1, §2

[6] = test system: HSC3 (human oral squamous cell carcinoma); assay: Cytotoxic activity, alamarBlue assay, 72 h; assay type: cell-based
Excerpt: as §1, §2

[7] = test system: K562 (human chronic myelogenous leukemia); assay: Cytotoxic activity, alamarBlue assay, 72 h; assay type: cell-based;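 as to Selectivity index: SI is noncancer IC50 (MRC-5 or PBMC) divided by cancer cell IC50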
Excerpt: as §1, §2

[8] = test system: B16-F10 (murine melanoma); assay: Cytotoxic activity, alamarBlue assay, 72 h; assay type: cell-based
Excerpt: as §1, §2

[9] = test system: SCC9 (human oral squamous cell carcinoma); assay: Cytotoxic activity, alamarBlue assay, 72 h; assay type: cell-based
Excerpt: as §1, §2

[10] = test system: HepG2 (human hepatocellular carcinoma); assay: Cytotoxic activity, alamarBlue assay, 72 h; assay type: cell-based
Excerpt: as §1, §2

HCT116 cells [11] = assay: Nitric oxide production (DAF-FM diacetate); assay type: cell-based, human; conditions: 1 h
Method: Nitric oxide generation was detected with 4-amino-5-methylamino-2′-,7′-difluofluorescein diacetate (DAF-FM diacetate) (Molecular Probes, Eugene, OR, USA). The cells were labeled with 3 μM of DAF-FM diacetate for 60 minutes at 37°C. Following staining cells were washed with saline and incubated for an additional 15 minutes at 37°C to allow for complete deesterification of the intracellular diacatates. Then, the nitric oxide radical was measured by flow cytometry as described above.

[12] = test system: cancer multicellular spheroids formed from HCT116 cells; assay: 3D multicellular spheroids culture, alamarBlue assay, 72 h; assay type: cell-based, human
Method: HCT116 cells were cultivated in three-dimensional (3D) multicellular spheroids. Briefly, 100 μL of a solution of cells (0.5 × 10^6 cells/mL) was inserted in 96-well plates with a cell-repellent surface (Greiner Bio-One, Kremsmünster, Austria) and cultured in complete medium plus 3% Matrigel (BD Biosciences, San Jose, CA, USA). Spheroids with stable structures had formed after three days. Then, the spheroids were exposed to a range of drug concentrations for 72 h, after which the cell viability was quantified by alamarBlue assay as described above.

HCT116 cells [13] = assay: Mitochondrial transmembrane potential (rhodamine 123); assay type: cell-based, human; conditions: HCT116, rhodamine 123, 24 h, p < 0.05
Method: Mitochondrial transmembrane potential was determined by the retention of the dye rhodamine 123 [9]. Cells were incubated with rhodamine 123 (5 μg/mL, Sigma-Aldrich Co.) at room temperature for 15 min in the dark and washed with saline. The cells were then incubated again in saline for 30 min in the dark and cell fluorescence was determined by flow cytometry as described above.

COc1ccc2c(c1)C[C@@H]1NCCc3cc4c(c-2c31)OCO4 [XYL, xylopine]
caspase-3 activation [1]: increased caspase-3 activation | xylopine-induced apoptosis on cotreatment with caspase-3 inhibitor (Z-DEVD-FMK) (HCT116 cells [2]; HCT116, 50 μM Z-DEVD-FMK 2 h, then 14 μM xylopine 48 h): prevented | xylopine-induced increase of cell death by apoptosis on cotreatment with NAC (HCT116 cells [2]; HCT116, 5 mM NAC 1 h, then 14 μM xylopine 48 h): prevented | early and late apoptosis (HCT116 cells [2]; HCT116, annexin V/PI, 24 and 48 h, p < 0.05): significantly increased | necrotic cells (HCT116 cells [2]; HCT116, annexin V/PI, 48 h, p < 0.05): significant increase | IC50 ([3]; Homo sapiens, HL-60, alamarBlue, 72 h): 18.5 µM | Selectivity index ([3]; IC50(MRC5)/IC50(HL-60)): 1.3 | Selectivity index ([3]; IC50(PBMC)/IC50(HL-60)): 1 | IC50 ([4]; Homo sapiens, MCF7, alamarBlue, 72 h): 12 µM | Selectivity index ([4]; IC50(MRC5)/IC50(MCF7)): 2 | Selectivity index ([4]; IC50(PBMC)/IC50(MCF7)): 1.5 | IC50 ([5]; Homo sapiens, HCT-116, HCT116, alamarBlue, 72 h): 6.4 µM | Selectivity index ([5]; IC50(MRC5)/IC50(HCT116)): 3.8 | Selectivity index ([5]; IC50(PBMC)/IC50(HCT116)): 2.9 | IC50 ([6]; Homo sapiens, HSC-3, HSC3, alamarBlue, 72 h): 15.7 µM | Selectivity index ([6]; IC50(MRC5)/IC50(HSC-3)): 1.5 | Selectivity index ([6]; IC50(PBMC)/IC50(HSC-3)): 1.2 | IC50 ([7]; Homo sapiens, K562, alamarBlue, 72 h): 7.8 µM | Selectivity index ([7]; IC50(MRC5)/IC50(K-562)): 3.1 | Selectivity index ([7]; IC50(PBMC)/IC50(K-562)): 2.4 | Selectivity index ([8]; IC50(MRC5)/IC50(B16-F10)): 2.5 | Selectivity index ([8]; IC50(PBMC)/IC50(B16-F10)): 1.9 | IC50 ([8]; Mus musculus, B16-F10, alamarBlue, 72 h): 9.6 µM | IC50 ([9]; Homo sapiens, SCC-9, SCC9, alamarBlue, 72 h): 26.6 µM | Selectivity index ([9]; IC50(MRC5)/IC50(SCC-9)): 0.9 | Selectivity index ([9]; IC50(PBMC)/IC50(SCC-9)): 0.7 | IC50 ([10]; Homo sapiens, HepG2, alamarBlue, 72 h): 9.4 µM | Selectivity index ([10]; IC50(MRC5)/IC50(HepG2)): 2.6 | Selectivity index ([10]; IC50(PBMC)/IC50(HepG2)): 2 | nitric oxide level (HCT116 cells [11]): increases nitric oxide | morphology of spheroids ([12]; 3D spheroids of HCT116, light microscopy): morphological alterations that indicate drug permeability and cytotoxicity in the 3D culture | IC50 ([12]; Homo sapiens, HCT-116, 3D spheroids of HCT116, alamarBlue, 72 h): 24.6 µM | mitochondrial depolarization (HCT116 cells [13]): induced mitochondrial depolarization
